Test results reported in patent US11331299B2, “Medicinal use of serrulatane diterpenes” (The University of Sydney, priority 2016, dated 2022).
pEC50, pIC50: −log10 of the molar value. Read-outs that look alike come from different tables or passages of the source.

Tested on: 280 human cancer cell lines
Test: OncoPanel cell proliferation assay (10-day)
Assay type: cell-based
Details: Homo sapiens; for pIC50: read-out: Cell Count IC50; for pEC50: read-out: Cell Count EC50; for GI50: read-out: Cell Count GI50
[1] = Caov-3, CaOV3, Female GU - Ovary
[2] = ChaGo-K-1, ChaGoK1, Lung - NSCLC
[3] = D341 Med, CNS - Medulloblastoma
[4] = Detroit 562, Detroit 562, Head and Neck
[5] = DoTc2-4510, DoTc2 4510, Lymphoma
[6] = G292, G-292, clone A141B1, Soft Tissue - Osteosarcoma
[7] = HEL 92.1.7, HEL-92-1-7, Leukemia
[8] = HOS, Soft Tissue - Osteosarcoma
[9] = HT-1080, HT-1080, Soft Tissue - Sarcoma
[10] = HUH-6-clone5, HUH-6 Clone 5, Liver
[11] = Hs 821.T, Soft Tissue - Sarcoma
[12] = Hs 888.Sk, Soft Tissue - Osteosarcoma

Compound: CC(C)=CCC[C@H](CO)[C@@H]1CC[C@@H](C)c2c1cc(C)c(O)c2O [Compound 1, 7,8,18-trihydroxyserrulat-14-ene]
- pIC50 (Calu-6, Calu6, Lung - NSCLC): 5.03
- pEC50 [1]: 5.72
- GI50 [1]: 1.85 µM
- pIC50 [1]: 5.72
- pEC50 (Capan-2, Capan-2, Pancreas): 5.88
- GI50 (Capan-2, Capan-2, Pancreas): 1.32 µM
- pIC50 (Capan-2, Capan-2, Pancreas): 5.88
- pEC50 [2]: 5.82
- GI50 [2]: 1.53 µM
- pIC50 [2]: 5.81
- pEC50 [3]: 5.04
- GI50 [3]: 9.37 µM
- pIC50 [3]: 5.02
- pEC50 (DB, Lymphoma): 5.68
- GI50 (DB, Lymphoma): 2.09 µM
- pIC50 (DB, Lymphoma): 5.68
- pEC50 (DBTRG-05MG, CNS - Glioma): 5.58
- GI50 (DBTRG-05MG, CNS - Glioma): 2.64 µM
- pIC50 (DBTRG-05MG, CNS - Glioma): 5.58
- pEC50 (DK-MG, CNS - Glioma): 5.21
- GI50 (DK-MG, CNS - Glioma): 6.12 µM
- pIC50 (DK-MG, CNS - Glioma): 5.19
- pEC50 (DLD-1, DLD-1, Colon): 5.53
- GI50 (DLD-1, DLD-1, Colon): 2.96 µM
- pIC50 (DLD-1, DLD-1, Colon): 5.53
- pEC50 (DMS-53, DMS53, Lung - SCLC): 6.09
- GI50 (DMS-53, DMS53, Lung - SCLC): 0.77 µM
- pIC50 (DMS-53, DMS53, Lung - SCLC): 6.09
- pEC50 (DMS-114, DMS114, Lung - SCLC): 5.56
- GI50 (DMS-114, DMS114, Lung - SCLC): 2.57 µM
- pIC50 (DMS-114, DMS114, Lung - SCLC): 5.56
- pEC50 (DOHH-2, DOHH-2, Lymphoma): 5.85
- GI50 (DOHH-2, DOHH-2, Lymphoma): 1.41 µM
- pIC50 (DOHH-2, DOHH-2, Lymphoma): 5.85
- pEC50 (DU-145, DU145, Prostate): 5.55
- GI50 (DU-145, DU145, Prostate): 2.78 µM
- pIC50 (DU-145, DU145, Prostate): 5.55
- pEC50 (Daoy, CNS - Medulloblastoma): 5.97
- GI50 (Daoy, CNS - Medulloblastoma): 1.06 µM
- pIC50 (Daoy, CNS - Medulloblastoma): 5.97
- pEC50 (Daudi, Lymphoma): 5.74
- GI50 (Daudi, Lymphoma): 1.84 µM
- pIC50 (Daudi, Lymphoma): 5.74
- pEC50 [4]: 5.71
- GI50 [4]: 1.96 µM
- pIC50 [4]: 5.71
- pEC50 [5]: 5.99
- GI50 [5]: 1.01 µM
- pIC50 [5]: 5.99
- pEC50 (EB2, Lymphoma): 5.19
- GI50 (EB2, Lymphoma): 6.45 µM
- pIC50 (EB2, Lymphoma): 5.19
- pEC50 (EB-3, Lymphoma): 5.45
- GI50 (EB-3, Lymphoma): 3.56 µM
- pIC50 (EB-3, Lymphoma): 5.45
- pEC50 (EFM-19, EFM-19, Breast): 5.79
- GI50 (EFM-19, EFM-19, Breast): 1.54 µM
- pIC50 (EFM-19, EFM-19, Breast): 5.79
- pEC50 (EM-2, Leukemia): 5.62
- GI50 (EM-2, Leukemia): 2.37 µM
- pIC50 (EM-2, Leukemia): 5.62
- pEC50 (FaDu, Head and Neck): 6.06
- GI50 (FaDu, Head and Neck): 0.87 µM
- pIC50 (FaDu, Head and Neck): 6.06
- pEC50 [6]: 5.34
- GI50 [6]: 4.41 µM
- pIC50 [6]: 5.34
- pEC50 (G-361, G-361, Skin (Melanoma)): 5.75
- GI50 (G-361, G-361, Skin (Melanoma)): 1.77 µM
- pIC50 (G-361, G-361, Skin (Melanoma)): 5.75
- pEC50 (G-401, G-401, Kidney): 5.40
- GI50 (G-401, G-401, Kidney): 3.99 µM
- pIC50 (G-401, G-401, Kidney): 5.40
- pEC50 (GA-10, GA-10, Lymphoma): 5.71
- GI50 (GA-10, GA-10, Lymphoma): 1.94 µM
- pIC50 (GA-10, GA-10, Lymphoma): 5.71
- pEC50 (H4, CNS - Glioma): 5.56
- GI50 (H4, CNS - Glioma): 2.77 µM
- pIC50 (H4, CNS - Glioma): 5.56
- pEC50 (HCT-15, HCT-15, Colon): 5.74
- GI50 (HCT-15, HCT-15, Colon): 1.83 µM
- pIC50 (HCT-15, HCT-15, Colon): 5.74
- pEC50 (HCT-116, HCT-116, Colon): 5.76
- GI50 (HCT-116, HCT-116, Colon): 1.75 µM
- pIC50 (HCT-116, HCT-116, Colon): 5.76
- pEC50 (HEC-1-A, Female GU - Uterus): 5.59
- GI50 (HEC-1-A, Female GU - Uterus): 2.56 µM
- pIC50 (HEC-1-A, Female GU - Uterus): 5.59
- pEC50 [7]: 4.86
- GI50 [7]: 13.9 µM
- pIC50 [7]: 4.86
- pEC50 (HLE, Liver): 5.34
- GI50 (HLE, Liver): 4.59 µM
- pIC50 (HLE, Liver): 5.33
- pEC50 (HLF, Liver): 5.35
- GI50 (HLF, Liver): 4.45 µM
- pIC50 (HLF, Liver): 5.35
- pEC50 (HMCB, Skin (Melanoma)): 5.86
- GI50 (HMCB, Skin (Melanoma)): 1.36 µM
- pIC50 (HMCB, Skin (Melanoma)): 5.86
- pEC50 [8]: 6.02
- GI50 [8]: 0.96 µM
- pIC50 [8]: 6.02
- pEC50 (HPAF-II, Pancreas): 5.86
- GI50 (HPAF-II, Pancreas): 1.37 µM
- pIC50 (HPAF-II, Pancreas): 5.86
- pEC50 (HT1197, HT-1197, Bladder): 5.64
- GI50 (HT1197, HT-1197, Bladder): 2.28 µM
- pIC50 (HT1197, HT-1197, Bladder): 5.63
- pEC50 (HT, Lymphoma): 5.82
- GI50 (HT, Lymphoma): 1.51 µM
- pIC50 (HT, Lymphoma): 5.82
- pEC50 (HT-3, Female GU - Cervix): 5.41
- GI50 (HT-3, Female GU - Cervix): 3.84 µM
- pIC50 (HT-3, Female GU - Cervix): 5.41
- pEC50 (HT-29, HT-29, Colon): 5.40
- GI50 (HT-29, HT-29, Colon): 4 µM
- pIC50 (HT-29, HT-29, Colon): 5.40
- pEC50 [9]: 6.02
- GI50 [9]: 0.96 µM
- pIC50 [9]: 6.02
- pEC50 (HT-1376, HT1376, Bladder): 5.84
- GI50 (HT-1376, HT1376, Bladder): 1.43 µM
- pIC50 (HT-1376, HT1376, Bladder): 5.84
- pEC50 [10]: 5.82
- GI50 [10]: 1.51 µM
- pIC50 [10]: 5.82
- pEC50 (HeLa, Female GU - Cervix): 5.52
- GI50 (HeLa, Female GU - Cervix): 2.98 µM
- pIC50 (HeLa, Female GU - Cervix): 5.52
- pEC50 (HepG2, HepG2, Liver): 6.09
- GI50 (HepG2, HepG2, Liver): 0.81 µM
- pIC50 (HepG2, HepG2, Liver): 6.09
- pEC50 (Hs 229.T, Lung - NSCLC): 5.54
- GI50 (Hs 229.T, Lung - NSCLC): 2.89 µM
- pIC50 (Hs 229.T, Lung - NSCLC): 5.53
- pEC50 (Hs 294T, Skin (Melanoma)): 5.58
- GI50 (Hs 294T, Skin (Melanoma)): 2.59 µM
- pIC50 (Hs 294T, Skin (Melanoma)): 5.58
- pEC50 (Hs 445, Hs 445, Lymphoma): 5.89
- GI50 (Hs 445, Hs 445, Lymphoma): 1.31 µM
- pIC50 (Hs 445, Hs 445, Lymphoma): 5.88
- pEC50 (Hs 611.T, Lymphoma): 5.53
- GI50 (Hs 611.T, Lymphoma): 2.91 µM
- pIC50 (Hs 611.T, Lymphoma): 5.53
- pEC50 (Hs 683, Hs 683, CNS - Glioma): 5.31
- GI50 (Hs 683, Hs 683, CNS - Glioma): 4.76 µM
- pIC50 (Hs 683, Hs 683, CNS - Glioma): 5.31
- pEC50 (Hs 688(A).T, Skin (Melanoma)): 5.88
- GI50 (Hs 688(A).T, Skin (Melanoma)): 1.27 µM
- pIC50 (Hs 688(A).T, Skin (Melanoma)): 5.84
- pEC50 (Hs746T, HS 746T, Stomach): 5.25
- GI50 (Hs746T, HS 746T, Stomach): 4.64 µM
- pIC50 (Hs746T, HS 746T, Stomach): 5.24
- pEC50 (Hs766T, Hs 766T, Pancreas): 5.79
- GI50 (Hs766T, Hs 766T, Pancreas): 1.54 µM
- pIC50 (Hs766T, Hs 766T, Pancreas): 5.79
- pEC50 [11]: 5.37
- GI50 [11]: 1.8 µM
- pIC50 [11]: 5.37
- pEC50 [12]: 5.66
- GI50 [12]: 2.05 µM
- pIC50 [12]: 5.62
- pEC50 (Hs 934.T, Skin (Melanoma)): 5.60
- GI50 (Hs 934.T, Skin (Melanoma)): 2.34 µM
- pIC50 (Hs 934.T, Skin (Melanoma)): 5.49
- pEC50 (Hs 936.T(C1), Skin (Melanoma)): 5.70
- GI50 (Hs 936.T(C1), Skin (Melanoma)): 1.97 µM
- pIC50 (Hs 936.T(C1), Skin (Melanoma)): 5.70
- pEC50 (Hs-578T, Hs 578T, Breast): 5.32
- GI50 (Hs-578T, Hs 578T, Breast): 4.68 µM
- pIC50 (Hs-578T, Hs 578T, Breast): 5.32
- pEC50 (HuCCT-1, HuCCT1, Liver): 5.61
- GI50 (HuCCT-1, HuCCT1, Liver): 2.48 µM
- pIC50 (HuCCT-1, HuCCT1, Liver): 5.61
- pEC50 (HuP-T4, HuP-T4, Pancreas): 5.34
- GI50 (HuP-T4, HuP-T4, Pancreas): 4.53 µM
- pIC50 (HuP-T4, HuP-T4, Pancreas): 5.34
- pEC50 (J82, Bladder): 5.97
- GI50 (J82, Bladder): 1.05 µM
- pIC50 (J82, Bladder): 5.97
- pEC50 (JAR, Placenta): 4.91
- GI50 (JAR, Placenta): 12.2 µM
- pIC50 (JAR, Placenta): 4.91
- pEC50 (JEG-3, JEG-3, Placenta): 5.36
- GI50 (JEG-3, JEG-3, Placenta): 4.32 µM
- pIC50 (JEG-3, JEG-3, Placenta): 5.36
- pEC50 (JIYOYE, Lymphoma): 5.23
- GI50 (JIYOYE, Lymphoma): 5.87 µM
- pIC50 (JIYOYE, Lymphoma): 5.23
- pEC50 (JeKo-1, JeKo-1, Lymphoma): 5.28
- GI50 (JeKo-1, JeKo-1, Lymphoma): 5.21 µM
- pIC50 (JeKo-1, JeKo-1, Lymphoma): 5.28
- pEC50 (Jurkat, Leukemia): 5.65
- GI50 (Jurkat, Leukemia): 2.24 µM
- pIC50 (Jurkat, Leukemia): 5.65
- pEC50 (K562, K562, Leukemia): 5.34
- GI50 (K562, K562, Leukemia): 4.58 µM
- pIC50 (K562, K562, Leukemia): 5.34
- pEC50 (KATO III, Stomach): 5.48
- GI50 (KATO III, Stomach): 3.27 µM
- pIC50 (KATO III, Stomach): 5.48
- pEC50 (KHOS-240S, Soft Tissue - Osteosarcoma): 6.02
